Reference: patent publication US20250327046A1, “ROLE OF POLYPHOSPHATES IN NEUROLOGICAL DISORDERS” (UNIVERSITY OF MASSACHUSETTS, priority 2021, published 2025)

Test system: mutSOD1 mice
Experiment: Survival of mutSOD1 mice (mouse model of ALS)
Assay type: in vivo
Details: FIG. 10B, polyP neutralizing cationic polyamine
Source text: Hemizygous transgenic mice carrying mutant human SOD1^G93A (high copy number; B6SJL; Cat. #002726), wild-type human SOD1^WT (B6SJL; Cat. #002297) and TARDBP^A315T (C57BL/6J; Cat. #010700) transgenes were obtained from Jackson Laboratories (Bar Harbor, Maine, USA). Hemizygous transgenic mice (background B6SJLF/J) carrying C9ORF72 hexanucleotide repeats (˜500) in intron were generated by Robert Brown (Peters et al., 2015). All mice were maintained and bred at the animal facility of Universidad Andres Bello. The presence of the human SOD1transgene, the human TARDBP transgene and the human C9ORF72 transgene were validated by polymerase chain reaction as previously described. Transgenic males were crossed with WT females (B6SJL or C57BL/6J) from the corresponding background; these non-transgenic littermates (NTg) were used as internal controls for all experiments. The SOD1^G93A (mutSOD1) mice, but not the hSOD1WT (wtSOD1) mice, develop signs of neuromuscular deficits (tremor of the legs and loss of extension reflex of the hind paws) starting at 3 months of age and have an average lifespan of 133-147 days. […]
In this Example, polyP neutralizing molecules including a dendrimer (e.g., G3-PAMAM-NH2) and a cationic polyamine (e.g., spermidine) were evaluated as potential therapies for neurological disorders using a mouse model of ALS. […]

With `NCCCCNCCCN` [spermidine] the “survival of mutSOD1 mice (in words)” value was “prolonged survival”.
